“Also recorded” adds a separate entry of the source.
Legend:
HIV-infected ATH8 cells = system: HIV-infected ATH8 cells
Experimental: (§1) Of critical importance to the biological activation of the 2',3'-dideoxycytidine analogues inside human cells, both as antiviral and as antitumor agents, is their anabolic conversion to nucleotides inside cells. This cannot be assumed to occur because not all nucleoside analgoues can be adequately phosphorylated. The ability of HIV-infected human T-lymphoblasts to phosphorylate 2',3'-dideoxycytidine nucleoside (ddCyd) was tested. […] The incubation was terminated after 24 hours of drug exposure, and the TCA-soluble fraction of the cell lysate was resolved on HPLC, utilizing a radial compression column of Partisil-10 SAX with a gradient of ammonium phosphate.

HIV [1] = experiment: In vitro inhibition of the cytopathic effect of HIV in ATH8 cells; assay type: cell-based, human immunodeficiency virus
Description: ATH8 cells (2×10^5) were pre-exposed to polybrene, and exposed to HIV in culture tubes (2,000 virus particles per cell), in the presence or absence of various concentrations of 2',3'-dideoxycytidine (ddC).
as §1

[2] = system: Human T4^+ T lymphocytes (ATH8 cell line); experiment: Anabolism of ddCyd by human T4+ T lymphocytes (intracellular concentration); assay type: in vitro ADME; settings: ATH8 cells exposed to 1 uM ddCyd for 24 hours
Experimental: * After incubation with ^3 Hlabelled 2',3dideoxycytidine (ddCyd) (1
exchange HPLC using radial compression columns of PartisilSAX equilibrate
phosphate, pH 3.8. ddCMP, 2',3dideoxycytidine-5monophosphate; ddCDP,

cytidine deaminase = experiment: Sensitivity to cytidine deaminase; assay type: in vitro ADME
HIV p24 antigen = experiment: Circulating HIV p24 antigen level in patients; assay type: in vivo, human immunodeficiency virus; settings: following treatment
Description: (§2) The efficacy of the application of 2',3'-dideoxycytidine in human use is shown graphically in Table I, where the absolute number of T4 cells and the T4/T8 ratio both show an increase in the T cells, indicating improvements of the immune system in patients with AIDS and its related conditions following therapy. […] It has also been shown that the circulating p24 antigen-level (a measure of viral replication in a patient's body) falls, following treatment with these compositions.
levels in the blood after one to two weeks of treatment.

[3] = Toxicity observed in humans likely due to ddC administration; assay type: in vivo, human
Description: Toxicity toward humans has been shown by the observation residing in Table II.
Toxicity Observed Which is
Likely to be Due to ddC Administration

T4 cells [4] = experiment: T4 cell number and T4/T8 ratio in AIDS patients receiving ddC; assay type: in vivo, human; settings: for T4/T8 Ratio, Start Treatment / T4/mm3, Start Treatment: start of treatment
Description: as §2
*Patients 1 and 2 received one dose of ddC every 8 hours, and patient 3
received one dose every 4 hours. Patient 1 received intravenous (IV)
dosing throughout; patient 2 received IV dosing for 21 days, followed by
oral dosing; patient 3 received IV dosing throughout. IV dosing was given
as 1 hour infusions. For oral dosing, the ddC was administered dissolved
in 0.1 ml of 0.9% sodium chloride solution and approximately 100 ml of
orange juice. Each patient received a 1 hour intravenous infusion (test
dose) of ddC two days prior to the initiating of dosing.

HIV [5] = experiment: In vitro inhibition of infectivity and replication of HIV (p24 gag expression in H9 cells); assay type: cell-based
Experimental: The in vitro inhibition of the infectivity and replication of the HIV virus by ddC was also tested. The results are shown in FIG. 4-B. In this test, 10^5 H9 cells were exposed to various concentrations of ddC for 4 hours, then to 2 ug/ml polybrene for 30 minutes, pelleted, and then exposed to HIV (3,000 virus particles/cell) for 1.5 hours. Cells were resuspended in fresh complete medium and cultured in tubes at 37° C. in 5% CO2 -containing humidified air, and under conditions in which the cells were continuously exposed to ddC. On days 8 (left), 9 (middle), and 10 (right) in culture, the percentage of the target H9 cells expressing p24 gag protein of HIV was determined by indirect immunofluorescence microscopy by using anti-HIV p24 murine monocolonal antibody.

PBM + PHA = experiment: In vitro immune reactivity of PBM stimulated with PHA (3H-uridine incorporation); assay type: cell-based, human; settings: 72 hours, control (None) 82 ± 1
Experimental: (§3) 5×10^4 normal helper/inducer TM3 cells were stimulated with tetanus toxoid (0.6 limiting flocculation units/ml) plus 10^5 irradiated (4,000 rad) autologous peripheral blood mononuclear cells (PBM) as a source of accessory cells, and were cultured for 72 hours in the presence or absence of ddC. After exposure to uCi ^3 H-uridine for the final 5 hours, cells were harvested onto glass fibers and the incorporated radioactivity was counted. Data are expressed as the arithmetic mean counts per minute (×10^3)±1 standard deviation triplicate determinations. 10^6 PBM from a healthy individual were stimulated with phytohaemagglutinin (PHA) or pokeweek mitogen (PWM) and cultured for 72 hours, and treated as described above. ^3 H-uridine incorporation was used as an indicator of activiation of the responder cells.

normal lymphocytes = system: normal lymphocytes
Experimental: as §3

Clone TM 3 = experiment: In vitro immune reactivity of normal helper/inducer TM3 cells (3H-uridine incorporation); assay type: cell-based, human; settings: 72 hours, tetanus toxoid, control (None) 12 ± 1
PBM + PWM = experiment: In vitro immune reactivity of PBM stimulated with PWM (3H-uridine incorporation); assay type: cell-based, human; settings: 72 hours, control (None) 24 ± 1
Experimental: as §3

T cells = experiment: Safety to T cells (studies of anabolic phosphorylation on human cells); assay type: cell-based; settings: comparable dosages
T4 cells [6] = experiment: T4 cell number and T4/T8 ratio in AIDS patients receiving ddC; assay type: in vivo, human; settings: patient 2, 0.03 mg/kg every 8 hours, IV then oral, 19 days receiving ddC
[7] = 0.03 mg/kg 3×/day intravenous for 12 days followed by 0.3 mg/kg 3×/day orally
[8] = AIDS patients, following therapy
[9] = patient 1, 0.25 mg/kg every 8 hours IV, 8 days receiving ddC
[10] = patient 1, 0.25 mg/kg every 8 hours IV
[11] = patient 2, 0.03 mg/kg every 8 hours, IV then oral
[12] = patient 3, 0.03 mg/kg every 4 hours IV, 12 days receiving ddC
[13] = patient 3, 0.03 mg/kg every 4 hours IV
[14] = Example 7, concentration (uM) figure not given

## Nc1ccn([C@H]2C[C@H](O)[C@@H](CO)O2)c(=O)n1 [dCYD, reference compound]
HIV-infected ATH8 cells; dCYD (5 uM) added together with ddCYD
  phosphorylation of ddCYD: phosphorylation was blocked
HIV [1]; dCYD with ddCyd
  reversal of the anti-HIV effect of ddCyd: reverses the anti-HIV effect of ddCyd

## Nc1ccn([C@H]2CC[C@@H](CO)O2)c(=O)n1 [ddC, 2',3'-dideoxycytidine]
[2]
  Intracellular concentration of ddCDP: 1.20 µM
  Intracellular concentration of ddCDPch: 1.10 µM
  Intracellular concentration of ddCMP: 2.10 µM
  Intracellular concentration of ddCTP: 0.5 µM
  Intracellular concentration of ddCyd: 6.40 µM
Cytidine deaminase
  sensitivity to cytidine deaminase: not sensitive to cytidine deaminase
HIV p24 antigen
  circulating p24 antigen-level: falls
[3]; [7]
  Tolerated for up to, without significant toxicity in some patients: up to 40 days
  minor toxicity in one patient: skin rash and oral ulcers
[3]; 0.03 mg/kg 6×/day intravenous for 14 days, followed by 0.03 mg/kg 6×/day orally
  Tolerated for up to, without significant toxicity: up to 18 days
[3]; 0.25 mg/kg 3×/day intravenous
  Toxicity: Thrombocytopenia; also recorded: skin rash
[3]; 0.25 mg/kg 3×/day intravenous, dropped from
  platelets, before drop: 234,000 /mm^3
[3]; 0.25 mg/kg 3×/day intravenous, dropped to
  platelets, after drop: 68,000 /mm^3
[3]; humans
  minor toxicities: skin rash and aphthous stomatitis
  toxic effect in humans: bone marrow suppression (decreased platelets)
[3]; some patients, prolonged administration
  toxicity in some patients with prolonged administration: small fiber peripheral neuropathy
T4 cells [4]; [8]
  T4/T8 ratio (change): increase
  absolute number of T4 cells: increase
T4 cells [4]; [9]
  T4/T8 Ratio, End Treatment: 0.40
  T/mm3, End Treatment: 530 /mm3
T4 cells [4]; [10]
  T4/T8 Ratio, Start Treatment: 0.20
  T4/mm3, Start Treatment: 309 /mm3
T4 cells [4]; [11]
  T4/T8 Ratio, Start Treatment: 0.39
  T4/mm3, Start Treatment: 260 /mm3
T4 cells [4]; [12]
  T4/T8 Ratio, End Treatment: 0.51
  T/mm3, End Treatment: 307 /mm3
T4 cells [4]; [13]
  T4/T8 Ratio, Start Treatment: 0.26
  T4/mm3, Start Treatment: 246 /mm3
HIV-infected ATH8 cells
  difference between uninfected and HIV-infected ATH8 cells in ability to phosphorylate ddCYD: No significant qualitative or quantitative differences
HIV [5]; 1 uM ddCyd
  inhibition of the infectivity of the virus: 100%
  inhibition of the replication of the virus: 100%
HIV [5]; [14]
  inhibition of the viral p24 expression: virtually complete inhibition
HIV [5]; H9 cells, p24 gag expression, days 8, 9, 10, 3,000 virus particles/cell, FIG. 4-B
  inhibition of the infectivity and replication of HIV: almost complete inhibition
HIV [1]; 1 uM ddCyd
  inhibition of the cytopathic effect of the virus: 100%
HIV [1]; ATH8 cells, day 5, 2,000 virus particles per cell, FIG. 4-A
  inhibition of the cytopathic effect of HIV: almost complete inhibition
HIV [1]; [14]
  inhibition of the cytopathic effect of HIV: virtually complete inhibition
PBM + PHA; 1 uM ddC
  mean counts per minute (×10^3) ± 1 standard deviation, 3H-uridine incorporation: 101 ± 1 counts per minute (×10^3)
PBM + PHA; 10 uM ddC
  mean counts per minute (×10^3) ± 1 standard deviation, 3H-uridine incorporation: 86 ± 3 counts per minute (×10^3)
Normal lymphocytes
  harm to cells: not harmed by drug concentrations that exceed the virustatic dose
Clone TM 3; 1 uM ddC
  mean counts per minute (×10^3) ± 1 standard deviation, 3H-uridine incorporation: 13 ± 1 counts per minute (×10^3)
Clone TM 3; 10 uM ddC
  mean counts per minute (×10^3) ± 1 standard deviation, 3H-uridine incorporation: 8 ± 1 counts per minute (×10^3)
PBM + PWM; 1 uM ddC
  mean counts per minute (×10^3) ± 1 standard deviation, 3H-uridine incorporation: 23 ± 3 counts per minute (×10^3)
PBM + PWM; 10 uM ddC
  mean counts per minute (×10^3) ± 1 standard deviation, 3H-uridine incorporation: 15 ± 3 counts per minute (×10^3)
T cells
  safety to T cells: safe and non-lethal to T cells
T4 cells [6]
  T4/T8 Ratio, End Treatment: 0.47
  T/mm3, End Treatment: 326 /mm3

Reference: patent US4879277A, “Antiviral compositions and methods” (The United States of America as represented by the …, priority 1987, dated 1989)
